Test [1] addresses T1, CXCR2 (Homo sapiens, UniProt P25025).
T1 sequence (P25025 1-360): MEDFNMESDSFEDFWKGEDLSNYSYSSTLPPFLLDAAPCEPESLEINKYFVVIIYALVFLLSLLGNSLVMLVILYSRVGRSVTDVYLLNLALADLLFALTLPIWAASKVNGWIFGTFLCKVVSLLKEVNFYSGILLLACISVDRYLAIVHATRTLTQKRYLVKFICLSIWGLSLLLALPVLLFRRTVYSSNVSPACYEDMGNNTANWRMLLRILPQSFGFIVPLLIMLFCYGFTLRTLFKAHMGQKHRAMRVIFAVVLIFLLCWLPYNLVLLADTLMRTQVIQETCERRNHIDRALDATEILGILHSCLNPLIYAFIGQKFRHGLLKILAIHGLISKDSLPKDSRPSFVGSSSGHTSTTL
Description: Human Neutrophil Chemotaxis Assay. In kind it is cell-based. Further details: Human neutrophils were purified from freshly drawn human whole blood; endogenous in cells; host or cells: primary human neutrophils from fresh whole blood. As to conditions: for pIC50: Table 12, human neutrophils migrating towards the CXCR2 ligand GROα, read-out: IC50. The protocol:
After 30 min, the labeled neutrophils were washed twice in chemotaxis buffer, resuspended as before and used immediately. For the assay, test compounds were tested in a dose-response format to determine IC50. Labeled neutrophils (50 μL) were pre-incubated with diluted test compound (50 μL) for 30 min in a 96-well plate (Greiner). Next, 100 μL of diluted compound was mixed with 100 μL of GROα (Peprotech #300-11, 2 nM) in the bottom portion of the chemotaxis chamber. The top portion (insert) of the chemotaxis system containing the FluoroBlok porous membrane was then assembled together. 50 μL of the pre-incubated neutrophils were added to the FluoroBlok insert (top portion) and chemotaxis measured by the neutrophils ability to migrate through the membrane towards the specific CXCR2 ligand, GROα.
IC50 values for compounds of the present invention (Table 12) were determined by the non-linear regression analysis of dose response curves.

The target in test [2] is T2, CCR6 (Homo sapiens, UniProt P51684).
T2 construct: Human CD4+CCR6+CXCR3-T cells were isolated from leukopak from healthy donors; endogenous in cells
T2 sequence (P51684 1-374): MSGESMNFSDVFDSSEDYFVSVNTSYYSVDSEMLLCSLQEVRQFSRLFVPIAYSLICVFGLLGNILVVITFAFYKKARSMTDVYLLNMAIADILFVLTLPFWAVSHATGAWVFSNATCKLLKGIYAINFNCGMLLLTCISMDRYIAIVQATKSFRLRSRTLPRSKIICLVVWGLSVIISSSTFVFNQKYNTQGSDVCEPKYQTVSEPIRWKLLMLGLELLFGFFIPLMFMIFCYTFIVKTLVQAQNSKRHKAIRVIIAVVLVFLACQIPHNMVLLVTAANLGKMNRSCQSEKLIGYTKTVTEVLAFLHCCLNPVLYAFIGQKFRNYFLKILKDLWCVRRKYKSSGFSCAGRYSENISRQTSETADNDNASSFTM
Description: CCR6+ T Cell Chemotaxis Assay. Type of test: cell-based. Conditions: for pIC50: Table 11, human CD4+CCR6+CXCR3- T cells, CCL20 0.5 nM in bottom chamber, 1 h at 37° C., read-out: IC50; for T Cell Chemotaxis Selectivity: Table 13, T cell chemotaxis compared to neutrophil chemotaxis, NS = not selective for T cell chemotaxis compared to neutrophil chemotaxis. The source says: Human CD4+CCR6+CXCR3-T cells were isolated from leukopak from healthy donors using EasySep™ Human Th17 Cell Enrichment Kit. […] Day 4 post activation, Dynabeads were removed from the culture. The activated T cells were maintained at 1-2×10^6 cells/mL for 15 days by feeding fresh growth media when needed.
For IC50 determination, the top and bottom of the chemotaxis chamber contained the same concentration of compound. DMSO was kept constant at 0.1% (v/v) in all wells. The final concentration of CCL20 (Peprotech 300-29A) in the bottom chamber is 0.5 nM. The fully assembled chemotaxis plate was placed in a cell culture incubator at 37° C., 5% CO2 for 1 h. After incubation, the top filter was removed, followed by a quick freeze of the bottom chamber at −80° C. for 1 h. The migrated cells in the bottom chamber were stained with CyQUANT dye (Life Technologies, C7026) for cell number determination.
IC50 values for compounds of the present invention (Table 11) were determined by the non-linear regression analysis of dose response curves.

Structures are written as SMILES. pIC50: −log10 of the molar value. Where two headings read alike, the source gives them in different places.

A word on the pIC50: it is the negative decadic logarithm of the IC50, by convention in mol/L. Take `Cc1cn(C)nc1[C@H](Nc1c(Nc2ccnc(C(=O)N(C)C)c2O)c(=O)c1=O)C1(C)CC2(CC2)C1` (single isomer, unassigned) [Example 17]: in test [1], the negative-log IC50 (pIC50) is 5.50. Besides, in test [2], the negative logarithm of the IC50 (pIC50) was 8.23 and the “T Cell Chemotaxis Selectivity” value was found to be 535.
For `Cc1nc([C@H](Nc2c(Nc3ccnc(C(=O)N(C)C)c3O)c(=O)c2=O)C2(C)CCCC2)c(C)o1` (single isomer, unassigned) [Example 34], in test [1], the pIC50 is 5.60. Also, in test [2], the negative logarithm of the IC50 (pIC50) was 7.62 and the “T Cell Chemotaxis Selectivity” value is on record as 104. The “R = CH3, T Cell Chemotaxis Selectivity” value in test [2] (Table 14, R = CH3) is 104.
Turning to `CCC1([C@@H](Nc2c(Nc3ccnc(C(=O)N(C)C)c3O)c(=O)c2=O)c2nn(C)cc2C)CCC1` (single isomer, unassigned) [Example 35], the pIC50 in test [1] was 6.59; in test [2] it was 7.52. The “T Cell Chemotaxis Selectivity” value in test [2] is given as 8.
For the compound `Cc1cn(C)nc1[C@H](Nc1c(Nc2ccnc(C(=O)N(C)C)c2O)c(=O)c1=O)[C@]1(C)CC(F)(F)CO1` (single isomer, unassigned) [Example 36], the pIC50 in test [1] is 5.15. In addition, in test [2], the negative-log IC50 (pIC50) was 7.49 and the “T Cell Chemotaxis Selectivity” value was found to be 220.
`[2H]C([2H])([2H])c1cn(C)nc1[C@H](Nc1c(Nc2ccnc(C(=O)N(C)C)c2O)c(=O)c1=O)C1(C)CCCC1` (single isomer, unassigned) [Example 39]: the pIC50 in test [1] was 6.30; in test [2], 8.19.
The term IC50 denotes the concentration needed to halve the response being measured. Turning to `Cc1cn(C)nc1[C@H](Nc1c(Nc2ccnc(C(=O)N(C)C)c2O)c(=O)c1=O)C1(C)CCCC1` [Example 1, (R)-4-((2-(((1,4-Dimethyl-1H-pyrazol-3-yl)(1-methylcyclopentyl)methyl)amino)-3,4-dioxocyclobut-1-en-1-yl)amino)-3-hydroxy-N,N-dimethylpicolinamide], the pIC50 is 6.28 in test [1] and 8.24 in test [2]. The concentration for half-maximal inhibition (IC50) in test [1] (Table 14, R = CH3, read-out: R = CH3, IC50 (nM) CXCR2 Neutrophil, GROα Chemotaxis) was found to be 524 nM; in test [2] (Table 14, R = CH3, read-out: R = CH3, IC50 (nM) CCR6 T cell, CCL20 Chemotaxis), 5.8 nM.
On to `Cc1cn(C)nc1[C@@H](Nc1c(Nc2ccnc(C(=O)N(C)C)c2O)c(=O)c1=O)C1(C)CCCC1` [Example 2, (S)-4-((2-(((1,4-Dimethyl-1H-pyrazol-3-yl)(1-methylcyclopentyl)methyl)amino)-3,4-dioxocyclobut-1-en-1-yl)amino)-3-hydroxy-N,N-dimethylpicolinamide], for which the negative logarithm of the IC50 (pIC50) in test [1] is 5.14; in test [2] it was 6.73.
For the compound `Cc1cn(C)nc1[C@H](Nc1c(Nc2ccnc(C(=O)N(C)C(C)C)c2O)c(=O)c1=O)C1(C)CCCC1` [Example 3, (R)-4-((2-(((1,4-Dimethyl-1H-pyrazol-3-yl)(1-methylcyclopentyl)methyl)amino)-3,4-dioxocyclobut-1-en-1-yl)amino)-3-hydroxy-N-isopropyl-N-methylpicolinamide], the pIC50 in test [1] is 5.82. For the same compound, in test [2], the pIC50 was 8.64 and the “T Cell Chemotaxis Selectivity” value was found to be 665.
The like results for `CCN(C)C(=O)c1nccc(Nc2c(N[C@@H](c3nn(C)cc3C)C3(C)CCCC3)c(=O)c2=O)c1O` [Example 4, (R)-4-((2-(((1,4-Dimethyl-1H-pyrazol-3-yl)(1-methylcyclopentyl)methyl)amino)-3,4-dioxocyclobut-1-en-1-yl)amino)-N-ethyl-3-hydroxy-N-methylpicolinamide] were, in that order, 6.05, 8.20 and 140.
As to `CCN(C)C(=O)c1nccc(Nc2c(N[C@H](c3nn(C)cc3C)C3(C)CCCC3)c(=O)c2=O)c1O` [Example 5, (S)-4-((2-(((1,4-Dimethyl-1H-pyrazol-3-yl)(1-methylcyclopentyl)methyl)amino)-3,4-dioxocyclobut-1-en-1-yl)amino)-N-ethyl-3-hydroxy-N-methylpicolinamide], the pIC50 in test [2] was 6.04.
With `Cc1cn(C)nc1[C@H](Nc1c(Nc2ccnc(C(=O)N3CCOCC3)c2O)c(=O)c1=O)C1(C)CCCC1` [Example 6, (R)-3-(((1,4-dimethyl-1H-pyrazol-3-yl)(1-methylcyclopentyl)methyl)amino)-4-((3-hydroxy-2-(morpholine-4-carbonyl)pyridin-4-yl)amino)cyclobut-3-ene-1,2-dione], the negative logarithm of the IC50 (pIC50) in test [1] was 6.23. Moreover, in test [2], the negative logarithm of the IC50 (pIC50) was 7.94 and the “T Cell Chemotaxis Selectivity” value is listed as 51.
For `Cc1cn(C)nc1[C@H](Nc1c(Nc2ccnc(C(=O)N3CCN(C)CC3)c2O)c(=O)c1=O)C1(C)CCCC1` [Example 7, (R)-3-(((1,4-Dimethyl-1H-pyrazol-3-yl)(1-methylcyclopentyl)methyl)amino)-4-((3-hydroxy-2-(4-methylpiperazine-1-carbonyl)pyridin-4-yl)amino)cyclobut-3-ene-1,2-dione] the same measures were 5.67, 7.53 and 72.
The like results for `CN(C)C(=O)c1nccc(Nc2c(N[C@@H](c3nn(C)cc3Cl)C3(C)CCCC3)c(=O)c2=O)c1O` [Example 8, (R)-4-((2-(((4-Chloro-1-methyl-1H-pyrazol-3-yl)(1-methylcyclopentyl)methyl)amino)-3,4-dioxocyclobut-1-en-1-yl)amino)-3-hydroxy-N,N-dimethylpicolinamide] were, in that order, 6.99, 8.52 and 34.
For `CN(C)C(=O)c1nccc(Nc2c(N[C@H](c3nn(C)cc3Cl)C3(C)CCCC3)c(=O)c2=O)c1O` [Example 9, (S)-4-((2-(((4-Chloro-1-methyl-1H-pyrazol-3-yl)(1-methylcyclopentyl)methyl)amino)-3,4-dioxocyclobut-1-en-1-yl)amino)-3-hydroxy-N,N-dimethylpicolinamide] the same measures were 5.56, 7.22 and 46.
Turning to `CC(C)N(C)C(=O)c1nccc(Nc2c(N[C@@H](c3nn(C)cc3Cl)C3(C)CCCC3)c(=O)c2=O)c1O` [Example 10, (R)-4-((2-(((4-Chloro-1-methyl-1H-pyrazol-3-yl)(1-methylcyclopentyl)methyl)amino)-3,4-dioxocyclobut-1-en-1-yl)amino)-3-hydroxy-N-isopropyl-N-methylpicolinamide], the pIC50 in test [1] was 6.76; in test [2], 8.06. Further, in test [2], the “T Cell Chemotaxis Selectivity” value is 20.
The like results for `COc1cn(C)nc1[C@H](Nc1c(Nc2ccnc(C(=O)N(C)C(C)C)c2O)c(=O)c1=O)C1(C)CCCC1` [Example 11, (R)-3-Hydroxy-N-isopropyl-4-((2-(((4-methoxy-1-methyl-1H-pyrazol-3-yl)(1-methyl-cyclopentyl)methyl)amino)-3,4-dioxocyclobut-1-en-1-yl)amino)-N-methylpicolinamide] were, in that order, 6.68, 8.72 and 110.
As to `Cc1ccc([C@H](Nc2c(Nc3cccc(C(=O)N(C)C)c3O)c(=O)c2=O)C2(C)COC2)o1` [Example 50, reference compound], in test [1] (Table 17, WO 2013/061005 comparator compounds, read-out: IC50 (nM) CXCR2 Neutrophil, GROα Chemotaxis), the 50% inhibitory concentration (IC50) is 121 nM.
With `CC[C@@H](Nc1c(Nc2ccnc(C(=O)N(C)C)c2O)c(=O)c1=O)c1cc(C(C)C)co1` [Example 112, reference compound], in test [1] (Table 15, WO 2010/131145 comparator compounds, read-out: IC50 (nM) CXCR2 Neutrophil, GROα Chemotaxis), the half-maximal inhibitory concentration (IC50) was 23.2 nM.

(Values after patent US11708360B2, “N-substituted-dioxocyclobutenylamino-3-hydroxy-picolinamides useful as CCR6 inhibitors” (Pfizer Inc., priority 2018, dated 2023).)
